In US6150385A, “1,3,4-thiadiazoles useful for the treatment of CMV infections” (Pharmacia & Upjohn Company, priority 1999, dated 2000):

Target: T1, HCMV polymerase (Human cytomegalovirus, UniProt P08546)
T1 construct: made in house; host or cells: SF-9 insect cells infected with recombinant baculovirus
Assay: HCMV polymerase assay (scintillation proximity assay)
Assay type: biochemical
Conditions: percentage of inhibition at 25 μM concentration in CMV polymerase assay
Procedure, shortened: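 Values are percent inhibition at 25 μM, measured by scintillation proximity after capture of biotinylated poly(dA)-oligo(dT) (6 nM) extended with 90 nM 3H-dTTP. Recombinant SF-9-derived enzyme reacted 30 min at 25 or 37 °C in HEPES pH 7.5/KCl/MgCl2/BSA buffer, ±2 mM CHAPS, before EDTA termination.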

T1 sequence (P08546 whole entry): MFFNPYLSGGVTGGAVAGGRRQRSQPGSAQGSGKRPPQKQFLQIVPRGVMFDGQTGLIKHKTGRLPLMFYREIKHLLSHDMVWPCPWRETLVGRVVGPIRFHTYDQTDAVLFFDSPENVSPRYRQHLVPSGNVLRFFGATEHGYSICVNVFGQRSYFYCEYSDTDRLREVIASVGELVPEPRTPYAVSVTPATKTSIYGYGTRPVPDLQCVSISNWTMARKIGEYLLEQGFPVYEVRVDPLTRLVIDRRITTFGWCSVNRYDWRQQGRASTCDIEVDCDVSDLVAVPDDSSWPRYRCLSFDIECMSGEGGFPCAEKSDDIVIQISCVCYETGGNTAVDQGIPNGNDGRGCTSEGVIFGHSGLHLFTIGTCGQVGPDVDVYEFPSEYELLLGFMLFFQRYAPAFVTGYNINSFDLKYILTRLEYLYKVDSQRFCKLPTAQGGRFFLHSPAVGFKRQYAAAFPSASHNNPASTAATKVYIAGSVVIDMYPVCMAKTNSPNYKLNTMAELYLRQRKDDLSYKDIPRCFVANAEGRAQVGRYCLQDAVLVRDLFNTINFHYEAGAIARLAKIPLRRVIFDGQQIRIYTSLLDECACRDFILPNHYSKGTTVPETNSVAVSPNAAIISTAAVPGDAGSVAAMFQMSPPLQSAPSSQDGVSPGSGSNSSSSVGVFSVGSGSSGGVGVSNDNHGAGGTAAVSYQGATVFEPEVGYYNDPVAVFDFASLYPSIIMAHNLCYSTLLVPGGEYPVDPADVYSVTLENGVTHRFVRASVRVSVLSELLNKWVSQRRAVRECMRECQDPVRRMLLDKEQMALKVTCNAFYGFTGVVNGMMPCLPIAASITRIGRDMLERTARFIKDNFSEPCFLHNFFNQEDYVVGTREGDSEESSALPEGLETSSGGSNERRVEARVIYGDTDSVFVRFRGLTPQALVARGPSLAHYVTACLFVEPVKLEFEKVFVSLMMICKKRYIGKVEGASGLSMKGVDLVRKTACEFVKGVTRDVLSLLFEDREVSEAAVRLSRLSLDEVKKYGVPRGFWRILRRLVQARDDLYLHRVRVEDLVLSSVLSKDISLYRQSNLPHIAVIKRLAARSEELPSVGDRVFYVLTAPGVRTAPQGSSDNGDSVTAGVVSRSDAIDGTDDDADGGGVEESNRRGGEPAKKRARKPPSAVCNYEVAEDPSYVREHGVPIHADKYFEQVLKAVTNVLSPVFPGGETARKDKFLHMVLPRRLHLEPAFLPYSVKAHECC

SMILES	inhibition at 25 µM [%]	% Inhib [%]
CCCCCCCC/C=C/CCCCCCCC(=O)Nc1nnc(NC2CCCCCC2)s1 [compound 31, (E)-N-[5-(cycloheptylamino)-1,3,4-thiadiazol-2-yl]-9-octadecenamide]	91.8	
COc1ccc(CNc2nnc(NC(=O)c3ccc(I)cc3)s2)cc1OC [compound 134, N-{5-[(3,4-dimethoxybenzyl)amino]-1,3,4-thiadiazol-2-yl}-4-iodobenzamide]	56.9	
O=C(Nc1nnc(NCCCCc2ccccc2)s1)c1ccc(C(F)(F)F)cc1 [compound 138, N-{5-[(4-phenylbutyl)amino]-1,3,4-thiadiazol-2-yl}-4-(trifluoromethyl)benzamide]	56.2	
O=C(Nc1nnc(NCCC(c2ccccc2)c2ccccc2)s1)c1c(Cl)cccc1Cl [compound 63, 2,6-dichloro-N-{5-[(3,3-diphenylpropyl)amino]1,3,4-thiadiazol-2-yl}benzamide]	73.8	
CCCCCCCCCCCNc1nnc(NC(=O)c2ccc3c(c2)C(=O)OC3=O)s1 [compound 4, 1,3-dioxo-N-[5-(undecylamino)-1,3,4-thiadiazol-2-yl]-1,3-dihydro-2-benzofuran-5-carboxamide]	100	
O=C(Nc1nnc(NCC(c2ccccc2)c2ccccc2)s1)c1ccc2c(c1)C(=O)OC2=O [compound 17, N-{5-[(2,2-diphenylethyl)amino]-1,3,4-thiadiazol-2-yl}-1,3-dioxo-1,3-dihydro-2-benzofuran-5-carboxamide]	98.6	
CCCCCCCCCCCNc1nnc(NC(=O)c2ccc(Br)cc2)s1 [compound 194, 4-bromo-N-[5-(undecylamino)-1,3,4-thiadiazol-2-yl]benzamide]	46.8	
NS(=O)(=O)c1ccc(CCNc2nnc(NC(=O)/C=C/c3ccccc3)s2)cc1 [compound 50, (E)-N-(5-{[4-(aminosulfonyl)phenethyl]amino}-1,3,4-thiadiazol-2-yl)-3-phenyl-2-propenamide]	79.8	
O=C(Nc1nnc(NCCCNC2CCCCC2)s1)c1ccc(F)cc1F [compound 160, N-(5-{[3-(cyclohexylamino)propyl]amino}-1,3,4-thiadiazol-2-yl)-2,4-difluorobenzamide]	52.6	
CCCCCCCCCCCNc1nnc(NC(=O)c2cccc([N+](=O)[O-])c2)s1 [compound 80, 3-nitro-N-[5-(undecylamino)-1,3,4-thiadiazol-2-yl]benzamide]	67.9	
O=C(Nc1nnc(NCCSc2ccccc2)s1)c1ccc2c(c1)C(=O)OC2=O [compound 33, 1,3-dioxo-N-(5-{[2-(phenylsulfanyl)ethyl]amino}-1,3,4-thiadiazol-2-yl)-1,3-dihydro-2-benzofuran-5-carboxamide]	90.1	
O=C(Nc1nnc(NCCc2c[nH]c3ccccc23)s1)c1ccc(S(=O)(=O)F)cc1 [compound 90, 4-{[(5-{[2-(1H-indol-3-yl)ethyl]amino}-1,3,4-thiadiazol-2-yl)amino]carbonyl}benzenesulfonyl fluoride]		66.1
CCCCCCCC/C=C/CCCCCCCC(=O)Nc1nnc(NCCc2cccs2)s1 [compound 41, (E)-N-(5-{[2-(2-thienyl)ethyl]amino}-1,3,4-thiadiazol-2-yl)-9-octadecenamide]	85.7	
O=C(/C=C/c1ccccc1)Nc1nnc(NCCCNC2CCCCC2)s1 [compound 124, (E)-N-(5-{[3-(cyclohexylamino)propyl]amino}-1,3,4-thiadiazol-2-yl)-3-phenyl-2-propenamide]	59.2	
CCOc1ccc2ccccc2c1C(=O)Nc1nnc(NC2CCCc3ccccc32)s1 (stereo not drawn) [compound 93, 2-ethoxy-N-[5-(1,2,3,4-tetrahydro-1-naphthaienylamino)-1,3,4-thiadiazol-2-yl]-1-naphthamide]	66	
N#Cc1ccc(C(=O)Nc2nnc(NCCc3cccs3)s2)cc1 [compound 102, 4-cyano-N-(5-{[2-(2-thienyl)ethyl]amino}-1,3,4-thiadiazol-2-yl)benzamide]	64.9	
CC(C)c1cc(C(C)C)c(C(=O)Nc2nnc(NCC(c3ccccc3)c3ccccc3)s2)c(C(C)C)c1 [compound 176, N-{5-[(2,2-diphenylethyl)amino]-1,3,4-thiadiazol-2-yl}-2,4,6-triisopropylbenzamide]	49.4	
O=C(/C=C/c1ccccc1)Nc1nnc(NCCCN2CCCC2=O)s1 [compound 130, (E)-N-(5-{[3-(2-oxo-1-pyrrolidinyl)propyl]amino}-1,3,4-thiadiazol-2-yl)-3-phenyl-2-propenamide]	58.2	

More lines, main results first:

inhibition at 25 µM [%]	SMILES	% Inhib [%]
40.9	CCCCCCCC/C=C/CCCCCCCC(=O)Nc1nnc(NCC2CCCO2)s1 (stereo not drawn) [compound 246, (E)-N-{5-[(tetrahydro-2-furanylmethyl)amino]-1,3,4-thiadiazol-2-yl}-9-octadecenamide]	
30.6	O=C(Nc1nnc(NC2CCCc3ccccc32)s1)c1cccc([N+](=O)[O-])c1 (stereo not drawn) [compound 347, 3-nitro-N-[5-(1,2,3,4-tetrahydro-1-naphthalenylamino)-1,3,4-thiadiazol-2-yl]benzamide]	
35	O=C(Nc1nnc(NCCC(c2ccccc2)c2ccccc2)s1)c1ccc(I)cc1 [compound 297, N-{5-[(3,3-diphenylpropyl)amino]-1,3,4-thiadiazol-2-yl}-4-iodobenzamide]	
35.9	O=C(/C=C/c1ccccc1)Nc1nnc(NC2CCN(Cc3ccccc3)CC2)s1 [compound 290, (E)-N-{5-[(1-benzyl-4-piperidinyl)amino]-1,3,4-thiadiazol-2-yl}-3-phenyl-2-propenamide]	
27.4	CC(C)c1cc(C(C)C)c(C(=O)Nc2nnc(NCCCN3CCCC3=O)s2)c(C(C)C)c1 [compound 381, 2,4,6-triisopropyl-N-(5-{[3-(2-oxo-1-pyrrolidinyl)propyl]amino}-1,3,4-thiadiazol-2-yl)benzamide]	
24.5	O=C(Nc1nnc(NCc2ccc(Cl)c(Cl)c2)s1)c1ccc(F)cc1F [compound 416, N-{5-[(3,4-dichlorobenzyl)amino]-1,3,4-thiadiazol-2-yl}-2,4-difluorobenzamide]	
30.3	O=C(Nc1nnc(NCc2ccc(Cl)c(Cl)c2)s1)c1ccc([N+](=O)[O-])o1 [compound 350, N-{5-[(3,4-dichlorobenzyl)amino]-1,3,4-thiadiazol-2-yl}-5-nitro-2-furamide]	
20.7	O=C(Nc1nnc(NCCc2c[nH]c3ccccc23)s1)c1cc(F)cc(F)c1 [compound 458, 3,5-difluoro-N-(5-{[2-(1H-indol-3-yl)ethyl]amino}-1,3,4-thiadiazol-2-yl)benzamide]	
28.5	CCOC(=O)N1CCC(Nc2nnc(NC(=O)c3cc4ccccc4s3)s2)CC1 [compound 368, ethyl 4-({5-[(1-benzothiophen-2-ylcarbonyl)amino]-1,3,4-thiadiazol-2-yl}amino)tetrahydro-1(2H)-pyridinecarboxylate]	
20.2	O=C(/C=C/c1ccccc1)Nc1nnc(NC2CC2)s1 [compound 465, (E)-N-[5-(cyclopropylamino)-1,3,4-thiadiazol-2-yl]-3-phenyl-2-propenamide]	
25.9	O=C(/C=C/c1ccccc1Cl)Nc1nnc(NCCN2CCCC2)s1 [compound 397, (E)-3-(2-chlorophenyl)-N-(5-{[2-(1-pyrrolidinyl)ethyl]amino}-1,3,4-thiadiazol-2-yl)-2-propenamide]	
20.1	O=C(Nc1nnc(NCCN2CCOCC2)s1)c1cccc([N+](=O)[O-])c1 [compound 469, N-{5-[(2-morpholinoethyl)amino]-1,3,4-thiadiazol-2-yl}-3-nitrobenzamide]	
25.8	CC(=O)NCCNc1nnc(NC(=O)/C=C/c2ccccc2)s1 [compound 400, (E)-N-(5-{[2-(acetylamino)ethyl]amino}-1,3,4-thiadiazol-2-yl)-3-phenyl-2-propenamide]	
22.5	O=C(/C=C/c1ccccc1Cl)Nc1nnc(NCC2CCCCC2)s1 [compound 439, (E)-3-(2-chlorophenyl)-N-{5-[(cyclohexylmethyl)amino]-1,3,4-thiadiazol-2-yl}-2-propenamide]	
22.1	O=C(/C=C/c1ccccc1Cl)Nc1nnc(NCc2cccc3ccccc23)s1 [compound 443, (E)-3-(2-chlorophenyl)-N-{5-[(1-naphthylmethyl)amino]-1,3,4-thiadiazol-2-yl]-2propenamide]	
39.2	O=C(Nc1nnc(NCCNc2ccccc2)s1)c1ccc([N+](=O)[O-])o1 [compound 264, N-{5-[(2-anilinoethyl)amino]-1,3,4-thiadiazol-2-yl}-5-nitro-2-furamide]	
41.3	O=C(Nc1nnc(NCc2ccccn2)s1)c1c(Cl)cccc1Cl [compound 241, 2,6-dichloro-N-{5-[(2-pyridinylmethyl)amino]-1,3,4-thiadiazol-2-yl}benzamide]	
34.9	CC(C)c1cc(C(C)C)c(C(=O)Nc2nnc(NCCC(c3ccccc3)c3ccccc3)s2)c(C(C)C)c1 [compound 299, N-{5-[(3,3-diphenylpropyl)amino]-1,3,4-thiadiazol-2-yl}-2,4,6-triisopropylbenzamide]	
44.7	CC1(C)C2CC[C@@H](CNc3nnc(NC(=O)c4ccc([N+](=O)[O-])o4)s3)C1C2 (stereo partly drawn) [compound 209, N-[5-({[(2R)-6,6-dimethylbicyclo[3.1.1]hept-2-yl]methyl}amino)-1,3,4-thiadiazol-2-yl]-5-nitro-2-furamide]	
23.1	O=C(Nc1nnc(NCCc2cccs2)s1)c1ccc(I)cc1 [compound 430, 4-iodo-N-(5-{[2-(2-thienyl)ethyl]amino}-1,3,4-thiadiazol-2-yl)benzamide]	
31.5	CC(C)(C)OC(=O)CCNc1nnc(NC(=O)c2ccc3c(c2)C(=O)OC3=O)s1 [compound 340, tert-butyl 3-[(5-{[(1,3-dioxo-1,3-dihydro-2-benzofuran-5-yl)carbonyl]amino}-1,3,4-thiadiazol-2-yl)amino]propanoate]	
